From the CheMixHub drug solubility set

Assay: xn = mol fraction of the nth substance listed, in the solute-free solvent

Nc1cccc2ccncc12 + CCCO + O
solubility (g/100 g solution)
Details | 278.15 K | 283.15 K | 288.15 K | 293.15 K | 298.15 K | 303.15 K | 308.15 K | 313.15 K | 318.15 K | 323.15 K
x2 = 0.03225 | 0.0813 | 0.0931 | 0.106 | 0.124 | 0.14 | 0.162 | 0.187 | 0.216 | 0.247 | 0.285
x2 = 0.06974 | 0.175 | 0.199 | 0.226 | 0.263 | 0.297 | 0.341 | 0.393 | 0.45 | 0.513 | 0.589
x2 = 0.1139 | 0.299 | 0.34 | 0.385 | 0.448 | 0.506 | 0.58 | 0.668 | 0.764 | 0.87 | 0.997
x2 = 0.1666 | 0.433 | 0.493 | 0.56 | 0.652 | 0.739 | 0.848 | 0.978 | 1.12 | 1.27 | 1.46
x2 = 0.2307 | 0.521 | 0.606 | 0.711 | 0.84 | 0.964 | 1.11 | 1.28 | 1.47 | 1.69 | 1.94
x2 = 0.3103 | 0.618 | 0.731 | 0.862 | 1.01 | 1.16 | 1.33 | 1.55 | 1.78 | 2.06 | 2.38
x2 = 0.4117 | 0.686 | 0.822 | 0.992 | 1.18 | 1.36 | 1.59 | 1.84 | 2.12 | 2.44 | 2.82
x2 = 0.5454 | 0.774 | 0.916 | 1.11 | 1.32 | 1.53 | 1.78 | 2.08 | 2.41 | 2.78 | 3.21
x2 = 0.7297 | 0.791 | 0.959 | 1.16 | 1.39 | 1.64 | 1.92 | 2.24 | 2.6 | 3.03 | 3.54

NC(Cc1c[nH]c2ccccc12)C(=O)O (centres undefined) + O + CO
solubility (g/100 g solution)
Details | 288.15 K | 293.15 K | 298.15 K | 303.15 K | 308.15 K
x2 = 0.1908 | 0.556 | 0.608 | 0.684 | 0.776 | 0.875
x2 = 0.3955 | 0.677 | 0.741 | 0.831 | 0.94 | 1.06
x2 = 0.595 | 0.827 | 0.902 | 1.01 | 1.14 | 1.28
x2 = 0.7962 | 1.02 | 1.11 | 1.23 | 1.38 | 1.56

Cc1ccc2cc(Br)ccc2n1 + CCO + O
solubility (g/100 g solution)
Details | 278.15 K | 283.15 K | 288.15 K | 293.15 K | 298.15 K | 303.15 K | 308.15 K | 313.15 K | 318.15 K | 323.15 K
x2 = 0.04165 | 0.0289 | 0.0336 | 0.0393 | 0.0455 | 0.0528 | 0.0607 | 0.0707 | 0.0816 | 0.0939 | 0.108
x2 = 0.08908 | 0.0673 | 0.0777 | 0.0902 | 0.103 | 0.119 | 0.137 | 0.158 | 0.181 | 0.207 | 0.237
x2 = 0.1436 | 0.119 | 0.137 | 0.159 | 0.181 | 0.209 | 0.239 | 0.276 | 0.315 | 0.359 | 0.411
x2 = 0.2068 | 0.176 | 0.203 | 0.234 | 0.267 | 0.308 | 0.354 | 0.408 | 0.466 | 0.53 | 0.607
x2 = 0.2812 | 0.218 | 0.26 | 0.304 | 0.347 | 0.4 | 0.46 | 0.535 | 0.61 | 0.695 | 0.798
x2 = 0.3698 | 0.266 | 0.313 | 0.373 | 0.43 | 0.501 | 0.579 | 0.667 | 0.762 | 0.873 | 1.01
x2 = 0.4772 | 0.308 | 0.37 | 0.442 | 0.521 | 0.603 | 0.705 | 0.819 | 0.935 | 1.07 | 1.24
x2 = 0.6101 | 0.356 | 0.425 | 0.505 | 0.593 | 0.693 | 0.812 | 0.948 | 1.09 | 1.27 | 1.47
x2 = 0.7788 | 0.399 | 0.477 | 0.569 | 0.67 | 0.785 | 0.925 | 1.08 | 1.25 | 1.44 | 1.66

NCCS(=O)(=O)O + O + OCCO
solubility (g/100 g solution)
Details | 298.15 K | 303.15 K | 308.15 K | 313.15 K | 318.15 K
x2 = 0.775 | 1.2 | 1.44 | 1.68 | 2.16 | 2.27
x2 = 0.8378 | 1.63 | 1.92 | 2.28 | 2.83 | 3.17
x2 = 0.8893 | 2.24 | 2.94 | 3.18 | 3.64 | 4.08
x2 = 0.9323 | 3.39 | 4.12 | 4.67 | 5.48 | 6.21
x2 = 0.9688 | 5.08 | 6.22 | 7.45 | 8.66 | 10.1

CN1CCC(N(Cc2cccs2)c2ccccc2)CC1 + CC(C)O + O
solubility (g/100 g solution)
Details | 278.15 K | 283.15 K | 288.15 K | 293.15 K | 298.15 K | 303.15 K | 308.15 K | 313.15 K | 318.15 K | 323.15 K
x2 = 0.03225 | 0.141 | 0.15 | 0.16 | 0.173 | 0.19 | 0.208 | 0.229 | 0.249 | 0.274 | 0.301
x2 = 0.06974 | 0.326 | 0.345 | 0.365 | 0.394 | 0.428 | 0.466 | 0.508 | 0.551 | 0.601 | 0.656
x2 = 0.1139 | 0.573 | 0.606 | 0.64 | 0.689 | 0.746 | 0.809 | 0.879 | 0.952 | 1.03 | 1.13
x2 = 0.1666 | 0.834 | 0.881 | 0.933 | 1.01 | 1.09 | 1.18 | 1.28 | 1.39 | 1.51 | 1.64
x2 = 0.2307 | 1.04 | 1.1 | 1.18 | 1.28 | 1.4 | 1.51 | 1.64 | 1.78 | 1.95 | 2.12
x2 = 0.3103 | 1.24 | 1.33 | 1.43 | 1.54 | 1.67 | 1.81 | 1.96 | 2.11 | 2.3 | 2.52
x2 = 0.4117 | 1.4 | 1.51 | 1.62 | 1.75 | 1.93 | 2.12 | 2.32 | 2.54 | 2.77 | 3.04
x2 = 0.5454 | 1.55 | 1.68 | 1.82 | 1.99 | 2.15 | 2.34 | 2.58 | 2.83 | 3.11 | 3.42
x2 = 0.7297 | 1.61 | 1.77 | 1.95 | 2.14 | 2.35 | 2.6 | 2.85 | 3.13 | 3.41 | 3.74

CN1CCC(N(Cc2cccs2)c2ccccc2)CC1 + CCO + O
solubility (g/100 g solution)
Details | 278.15 K | 283.15 K | 288.15 K | 293.15 K | 298.15 K | 303.15 K | 308.15 K | 313.15 K | 318.15 K | 323.15 K
x2 = 0.04165 | 0.102 | 0.109 | 0.117 | 0.128 | 0.141 | 0.156 | 0.171 | 0.187 | 0.206 | 0.228
x2 = 0.08908 | 0.202 | 0.215 | 0.23 | 0.25 | 0.274 | 0.301 | 0.33 | 0.358 | 0.393 | 0.431
x2 = 0.1436 | 0.339 | 0.36 | 0.385 | 0.418 | 0.457 | 0.501 | 0.546 | 0.592 | 0.646 | 0.707
x2 = 0.2068 | 0.502 | 0.533 | 0.571 | 0.62 | 0.679 | 0.743 | 0.807 | 0.874 | 0.953 | 1.04
x2 = 0.2812 | 0.667 | 0.713 | 0.764 | 0.826 | 0.904 | 0.984 | 1.07 | 1.16 | 1.26 | 1.39
x2 = 0.3698 | 0.851 | 0.906 | 0.981 | 1.07 | 1.18 | 1.29 | 1.4 | 1.51 | 1.65 | 1.8
x2 = 0.4772 | 1.02 | 1.08 | 1.18 | 1.29 | 1.42 | 1.56 | 1.69 | 1.84 | 2.01 | 2.19
x2 = 0.6101 | 1.16 | 1.24 | 1.36 | 1.5 | 1.65 | 1.81 | 1.97 | 2.15 | 2.35 | 2.56
x2 = 0.7788 | 1.22 | 1.32 | 1.47 | 1.64 | 1.81 | 2 | 2.19 | 2.4 | 2.63 | 2.87

O=C(O)C1CC(O)CN1 (centres undefined) + O + CC#N
solubility (g/100 g solution)
Details | x2 = 0.1 | x2 = 0.2 | x2 = 0.3 | x2 = 0.4 | x2 = 0.5 | x2 = 0.6 | x2 = 0.7 | x2 = 0.8 | x2 = 0.9
283.15 K | 0.0362 | 0.0575 | 0.0864 | 0.185 | – | 0.635 | 1.45 | 3.22 | 9.59
293.15 K | 0.0605 | 0.101 | 0.188 | 0.517 | 1.13 | 1.82 | 2.8 | 4.82 | 12.7
303.15 K | 0.0971 | 0.136 | 0.287 | 0.813 | 1.6 | 2.88 | 4.48 | 7.02 | 15.9
313.15 K | 0.128 | 0.203 | 0.398 | 1.08 | 2.25 | 3.66 | 6.08 | 11.3 | 21.4
323.15 K | 0.187 | 0.327 | 0.778 | 1.71 | 3.12 | 5.6 | 10.2 | 16.7 | 24.8

Nc1cccc2ccncc12 + CO + O
solubility (g/100 g solution)
Details | 278.15 K | 283.15 K | 288.15 K | 293.15 K | 298.15 K | 303.15 K | 308.15 K | 313.15 K | 318.15 K | 323.15 K
x2 = 0.05881 | 0.0271 | 0.0315 | 0.0363 | 0.0431 | 0.0495 | 0.0576 | 0.0677 | 0.079 | 0.0916 | 0.107
x2 = 0.1233 | 0.0301 | 0.035 | 0.0406 | 0.0481 | 0.0556 | 0.0648 | 0.0763 | 0.0893 | 0.104 | 0.122
x2 = 0.1942 | 0.0368 | 0.0428 | 0.0497 | 0.0588 | 0.0681 | 0.0794 | 0.0937 | 0.11 | 0.128 | 0.15
x2 = 0.2727 | 0.0479 | 0.0557 | 0.0648 | 0.0762 | 0.0886 | 0.103 | 0.122 | 0.142 | 0.167 | 0.196
x2 = 0.3599 | 0.0644 | 0.0748 | 0.087 | 0.102 | 0.119 | 0.138 | 0.163 | 0.19 | 0.223 | 0.262
x2 = 0.4576 | 0.0845 | 0.0982 | 0.115 | 0.134 | 0.157 | 0.183 | 0.216 | 0.252 | 0.296 | 0.349
x2 = 0.5675 | 0.111 | 0.128 | 0.15 | 0.175 | 0.205 | 0.238 | 0.282 | 0.329 | 0.387 | 0.455
x2 = 0.6923 | 0.131 | 0.153 | 0.179 | 0.209 | 0.248 | 0.289 | 0.343 | 0.4 | 0.473 | 0.559
x2 = 0.835 | 0.144 | 0.167 | 0.201 | 0.239 | 0.286 | 0.34 | 0.399 | 0.461 | 0.542 | 0.644

NCCS(=O)(=O)O + O + CC(O)CO
solubility (g/100 g solution)
Details | 298.15 K | 303.15 K | 308.15 K | 313.15 K | 318.15 K
x2 = 0.8085 | 0.283 | 0.373 | 0.413 | 0.484 | 0.694
x2 = 0.8636 | 0.605 | 0.646 | 0.75 | 0.914 | 1.26
x2 = 0.9079 | 0.929 | 1 | 1.36 | 1.64 | 2.12
x2 = 0.9441 | 1.72 | 2.03 | 2.51 | 3.03 | 3.67
x2 = 0.9744 | 3.42 | 4.2 | 5.01 | 5.6 | 6.88
